In patent US9840494B2, “Quinazoline derivative” (Tianjin Hemay Oncology Pharmaceutical Co., Ltd., priority 2013, dated 2017):
Marks after values point to notes of the source that are not given here.

What was measured:
[1] = system: A431 human epidermal carcinoma xenograft; experiment: A431 human epidermal carcinoma xenograft model; format: in vivo, nude mice; conditions: for Tumor Weight (x ± S.D.) / Tumor Inhibitor Rate / Relative Tumor Volume (x ± S.D.) / T/C / Tumor Volume (x ± S.D.): A431 xenograft; for Tumor Inhibitor Rate: by tumor weight; for Relative Tumor Volume (x ± S.D.) / T/C / Tumor Volume (x ± S.D.): end of the assay
Procedure: Tumor cells were cultured in an incubator at 37° C. with 5% CO2 using MEM medium containing 10% inactivated fetal calf serum, 100 U/ml penicillin and 100 µg/ml streptomycin. The tumor cells in logarithmic growth phase were collected, adjusted to an appropriate density and injected subcutaneously into nude mice (0.2 ml per mouse). An xenograft model was established after a tumor was formed in the nude mice and passaged in vivo for more than three generations.
The above-mentioned tumor-bearing mice were sacrificed by cervical dislocation. The tumor was taken out and cut into small tumor pieces (about 2 mm×2 mm×2 mm) under sterile conditions. The small tumor pieces were inoculated subcutaneously into nude mice with a trocar. […] The animals in each group were subjected to intragastric administration once a day for 14 consecutive days. The day of grouping is assigned as day 0.
Tumor volume is calculated as: volume =0.5×long diameter×short diameter^2. The relative tumor volume (RTV) was calculated based on the measurements as: RTV=Vt/V0, wherein V0 is the tumor volume measured when the animals were grouped to be administrated (i.e., d0), and Vt is the tumor volume when each measurement was taken. Relative tumor proliferation rate T/C was calculated based on relative tumor volume, in which T is the mean value of the relative tumor volume of the treatment group, and C is the mean value of the relative tumor volume of the solvent control group. T/C was calculated as follows: T/C=TRTV/CRTV×100% (TRTV: RTV of the treatment group; CRTV:
RTV of the solvent control group) Inhibition rate (%)=(mean tumor weight of the solvent control group−mean tumor weight of the treatment group)/mean tumor weight of the solvent control group×100%. Percentage of body weight change=Wn/W0×100% (Wn: mean body weight of experimental animals in each group at day n, W0: mean body weight of experimental animals in each group at day 0).
One-Way ANOVA test was conducted in SPSS13.0, performing statistical analysis between groups.

[2] = MTD assay, single administration to mice; format: in vivo; conditions: ICR male mice, tail intravenous administration, 14 days
Source text: MTD Assay for a Single […] to Mice
1. Experimental Animals: ICR male mice, weighing 19-22 g, were purchased from Beijing Vital River Laboratory Animal Technology Co., Ltd., Animal License No. SCXK (Beijing) 2007-0001
2. Experimental Scheme: 21 mice were divided into nine groups: groups I, IV and VI referred to one mouse per group, groups II, V and IIX referred to four mice per group, and group III, VI and IX referred to two mice per group. Compound 4, compound 2 and compound 12 were dissolved in water for injection. Groups I-III were subjected to tail intravenous administration of compound 4 (N-[4-(3-chloro-4-fluorophenylamino)-7-(2-methoxyethoxy)quinazolin-6yl]-2-[piperidin-4-ylidene]acetamide dihydrochloride) at doses of 100 mg/kg, 150 mg/kg, and 200 mg/kg, respectively. The animal response and the weight change were observed after administration, and these animals were sacrificed after 14 days for anatomical observation. Groups IV-VI were subjected to tail intravenous administration of compound 2 (N-[4-(3-chloro-4-fluorophenylamino)-7-(2-methoxyethoxy)quinazolin-6yl]-2-[1-(2-methoxyethyl)piperidin-4-ylidene]acetamide dihydrochloride) at doses of 100 mg/kg, 150 mg/kg, and 200 mg/kg, respectively. The animal response and the weight change were observed after administration, and these animals were sacrificed after 14 days for anatomical observation. Groups VII-IX were subjected to tail intravenous administration of compound 12 (N-[4-(3-ethynylphenylamino-7-(2-ethoxy)quinazolin-6yl]-2-[1-methylpiperidin-4-ylidene]acetamide dihydrochloride) at doses of 100 mg/kg, 150 mg/kg, and 200 mg/kg, respectively. The animal response and the weight change were observed after administration, and these animals were sacrificed after 14 days for anatomical observation.

[3] = A431 xenograft nude mice, 20, 40 and 80 mg/kg intragastric once a day for 14 days
[4] = 20 mg/kg intragastric once a day for 14 days
[5] = 40 mg/kg intragastric once a day for 14 days
[6] = 80 mg/kg intragastric once a day for 14 days

## COCCOc1cc2ncnc(Nc3ccc(F)c(Cl)c3)c2cc1NC(=O)C=C1CCN(CCOC)CC1.CS(=O)(=O)O [Compound 3, N-[4-(3-chloro-4-fluorophenylamino)-7-(2-methoxyethoxy)quinazolin-6-yl]-2-[1-(2-methoxyethyl)piperidin-4-ylidene]acetamide dimethylsulfonate]
[1]; [3]
  Body weights of the experimental animals: not significantly reduced
  abnormality in the experimental animals: no significant abnormality was observed
[1]; [4]
  Tumor Weight (x ± S.D.): 0.232 ± 0.312 g
  Tumor Inhibitor Rate: 68.6%
  Relative Tumor Volume (x ± S.D.): 2.3 ± 1.5
  T/C: 30.6%
  Tumor Volume (x ± S.D.): 424.9 ± 434.0*** mm^3
[1]; [5]
  Tumor Weight (x ± S.D.): 0.199 ± 0.153 g
  Tumor Inhibitor Rate: 73.2%
  Relative Tumor Volume (x ± S.D.): 2.8 ± 2.3
  T/C: 37.7%
  Tumor Volume (x ± S.D.): 418.9 ± 284.7*** mm^3
[1]; [6]
  Tumor Weight (x ± S.D.): 0.107 ± 0.126 g
  Tumor Inhibitor Rate: 85.6%
  Relative Tumor Volume (x ± S.D.): 1.4 ± 0.9
  T/C: 19.1%
  Tumor Volume (x ± S.D.): 254.7 ± 228.2*** mm^3

## COCCOc1cc2ncnc(Nc3ccc(F)c(Cl)c3)c2cc1NC(=O)C=C1CCN(CCOC)CC1.Cl.Cl [Compound 2, N-[4-(3-chloro-4-fluorophenylamino)-7-(2-methoxyethoxy)quinazolin-6yl]-2-[1-(2-methoxyethyl)piperidin-4-ylidene]acetamide dihydrochloride]
[2]; 100 mg/kg, 1 animal
  Mortality: 0%
  Number of Deaths: 0
[2]; 150 mg/kg, 4 animals
  Mortality: 0%
  Number of Deaths: 0
[2]; 200 mg/kg, 2 animals
  Mortality: 0%
  Number of Deaths: 0
